One test addresses T1, HDAH (Alcaligenes sp., UniProt Q70I53).
T1 sequence (Q70I53 1-369): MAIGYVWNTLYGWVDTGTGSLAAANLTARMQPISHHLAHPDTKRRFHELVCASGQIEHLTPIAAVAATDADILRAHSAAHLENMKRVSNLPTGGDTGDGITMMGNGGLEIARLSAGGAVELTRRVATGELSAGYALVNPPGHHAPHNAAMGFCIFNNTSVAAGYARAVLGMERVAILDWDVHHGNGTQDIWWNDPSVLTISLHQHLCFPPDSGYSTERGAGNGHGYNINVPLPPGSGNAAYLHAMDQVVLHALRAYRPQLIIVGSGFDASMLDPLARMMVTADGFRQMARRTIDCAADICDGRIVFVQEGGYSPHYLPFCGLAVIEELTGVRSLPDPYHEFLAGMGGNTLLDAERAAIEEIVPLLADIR
The settings on record: CTS; cited from earlier work.

The target in a further test is HIV-RT Y188L (Human immunodeficiency virus type 1 group M subtype B, UniProt P04585, Y775L). As to conditions: Rotili et al. 2012; cited from earlier work.
A further test deals with HIV-RT Y181I (Human immunodeficiency virus type 1 group M subtype B, UniProt P04585, Y768I). The settings on record: Rotili et al. 2012; cited from earlier work.
The next test has as its target HIV-RT V106A (Human immunodeficiency virus type 1 group M subtype B, UniProt P04585, V693A). As to conditions: Rotili et al. 2012; cited from earlier work.
Another test deals with HIV-RT K103N (Human immunodeficiency virus type 1 group M subtype B, UniProt P04585, K690N). The settings on record: Rotili et al. 2012; cited from earlier work.
The next test has as its target HIV-RT WT (Human immunodeficiency virus type 1 group M subtype B, UniProt P04585). As to conditions: Rotili et al. 2012; cited from earlier work.
The target of another test is HIV-RT L100I (Human immunodeficiency virus type 1 group M subtype B, UniProt P04585, L687I). The settings on record: Rotili et al. 2012; cited from earlier work.
A further test has as its system HDAC isoforms. Briefly: HDAC inhibition profiled over several HDAC isoforms (experimental). The format is biochemical, human. The settings on record: range of pIC50 over the profiled HDAC isoforms.
The next test deals with HDAC4 (Homo sapiens, UniProt P56524). The settings on record: cited from earlier work.
A further test concerns the target T2, HDAC7 (Homo sapiens, UniProt Q8WUI4).
T2 sequence (Q8WUI4 1-952): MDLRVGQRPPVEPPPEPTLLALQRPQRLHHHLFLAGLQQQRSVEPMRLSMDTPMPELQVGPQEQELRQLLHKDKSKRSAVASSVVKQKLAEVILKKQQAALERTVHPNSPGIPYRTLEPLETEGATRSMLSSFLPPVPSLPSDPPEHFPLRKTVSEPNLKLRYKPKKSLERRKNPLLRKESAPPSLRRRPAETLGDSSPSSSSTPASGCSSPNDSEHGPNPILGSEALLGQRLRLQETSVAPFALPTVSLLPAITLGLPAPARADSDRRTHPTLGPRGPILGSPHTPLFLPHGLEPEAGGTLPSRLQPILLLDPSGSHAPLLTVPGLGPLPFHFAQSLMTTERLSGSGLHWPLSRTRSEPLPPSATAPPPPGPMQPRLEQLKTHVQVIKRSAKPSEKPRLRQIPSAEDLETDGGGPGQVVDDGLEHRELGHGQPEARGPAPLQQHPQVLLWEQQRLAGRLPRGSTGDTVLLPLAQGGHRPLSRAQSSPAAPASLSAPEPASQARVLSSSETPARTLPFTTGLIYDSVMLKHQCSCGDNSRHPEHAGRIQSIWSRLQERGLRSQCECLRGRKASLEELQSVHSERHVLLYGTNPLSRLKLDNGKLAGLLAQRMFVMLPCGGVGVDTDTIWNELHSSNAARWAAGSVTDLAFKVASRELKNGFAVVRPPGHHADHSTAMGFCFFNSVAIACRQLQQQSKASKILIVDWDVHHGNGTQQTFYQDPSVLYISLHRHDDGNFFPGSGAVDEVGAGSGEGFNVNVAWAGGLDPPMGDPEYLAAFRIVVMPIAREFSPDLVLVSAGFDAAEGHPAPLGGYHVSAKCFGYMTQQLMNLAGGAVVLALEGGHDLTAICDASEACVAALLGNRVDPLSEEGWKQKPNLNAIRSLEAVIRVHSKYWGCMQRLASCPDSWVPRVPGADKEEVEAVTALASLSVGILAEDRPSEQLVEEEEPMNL
As to conditions: cited from earlier work.

For the next test, the target named is T3, HDAC10 (Homo sapiens, UniProt Q969S8).
T3 sequence (Q969S8 1-669): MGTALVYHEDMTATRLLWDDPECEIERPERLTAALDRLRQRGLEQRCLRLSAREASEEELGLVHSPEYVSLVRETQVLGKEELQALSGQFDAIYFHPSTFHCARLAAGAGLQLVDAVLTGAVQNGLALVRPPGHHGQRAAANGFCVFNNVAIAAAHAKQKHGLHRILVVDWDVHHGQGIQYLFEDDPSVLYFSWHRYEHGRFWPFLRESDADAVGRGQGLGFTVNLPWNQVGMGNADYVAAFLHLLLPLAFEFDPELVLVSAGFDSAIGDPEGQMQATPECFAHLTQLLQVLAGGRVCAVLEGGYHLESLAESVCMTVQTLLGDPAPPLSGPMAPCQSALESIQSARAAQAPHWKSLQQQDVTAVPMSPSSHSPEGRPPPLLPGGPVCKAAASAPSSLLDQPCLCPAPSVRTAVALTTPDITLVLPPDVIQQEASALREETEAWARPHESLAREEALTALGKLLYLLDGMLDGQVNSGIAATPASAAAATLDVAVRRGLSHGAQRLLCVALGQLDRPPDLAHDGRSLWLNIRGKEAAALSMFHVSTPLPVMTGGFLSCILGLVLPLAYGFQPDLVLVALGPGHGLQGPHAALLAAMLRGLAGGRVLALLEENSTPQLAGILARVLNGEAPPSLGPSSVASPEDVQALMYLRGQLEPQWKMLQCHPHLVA
As to conditions: cited from earlier work; for Exp. pIC50: MTS inhibitors; for IC50: MTS, read-out: reported HDACs inhibitory activities IC50.

For another test, the target named is HDAC1 (Homo sapiens, UniProt Q13547). As to conditions: cited from earlier work.
In a further test the target is T4, HDAC8 (Homo sapiens, UniProt Q9BY41).
T4 sequence (Q9BY41 1-377): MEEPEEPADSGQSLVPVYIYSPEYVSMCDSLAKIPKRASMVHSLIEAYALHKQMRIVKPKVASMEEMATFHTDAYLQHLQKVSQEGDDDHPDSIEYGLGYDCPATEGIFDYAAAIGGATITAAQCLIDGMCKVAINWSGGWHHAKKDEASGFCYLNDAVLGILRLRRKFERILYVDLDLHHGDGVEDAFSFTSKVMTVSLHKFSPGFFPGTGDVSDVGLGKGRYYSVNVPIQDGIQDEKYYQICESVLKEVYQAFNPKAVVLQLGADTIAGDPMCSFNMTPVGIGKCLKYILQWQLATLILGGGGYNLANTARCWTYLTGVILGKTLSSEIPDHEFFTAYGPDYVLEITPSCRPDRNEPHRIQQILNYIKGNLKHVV
The settings on record: cited from earlier work.

A further test concerns the target HDAC2 (Homo sapiens, UniProt Q92769). As to conditions: cited from earlier work; for Exp. pIC50: MTS inhibitors.
A further test has as its target T5, HDAC6 (Homo sapiens, UniProt Q9UBN7).
T5 sequence (Q9UBN7 1-1215): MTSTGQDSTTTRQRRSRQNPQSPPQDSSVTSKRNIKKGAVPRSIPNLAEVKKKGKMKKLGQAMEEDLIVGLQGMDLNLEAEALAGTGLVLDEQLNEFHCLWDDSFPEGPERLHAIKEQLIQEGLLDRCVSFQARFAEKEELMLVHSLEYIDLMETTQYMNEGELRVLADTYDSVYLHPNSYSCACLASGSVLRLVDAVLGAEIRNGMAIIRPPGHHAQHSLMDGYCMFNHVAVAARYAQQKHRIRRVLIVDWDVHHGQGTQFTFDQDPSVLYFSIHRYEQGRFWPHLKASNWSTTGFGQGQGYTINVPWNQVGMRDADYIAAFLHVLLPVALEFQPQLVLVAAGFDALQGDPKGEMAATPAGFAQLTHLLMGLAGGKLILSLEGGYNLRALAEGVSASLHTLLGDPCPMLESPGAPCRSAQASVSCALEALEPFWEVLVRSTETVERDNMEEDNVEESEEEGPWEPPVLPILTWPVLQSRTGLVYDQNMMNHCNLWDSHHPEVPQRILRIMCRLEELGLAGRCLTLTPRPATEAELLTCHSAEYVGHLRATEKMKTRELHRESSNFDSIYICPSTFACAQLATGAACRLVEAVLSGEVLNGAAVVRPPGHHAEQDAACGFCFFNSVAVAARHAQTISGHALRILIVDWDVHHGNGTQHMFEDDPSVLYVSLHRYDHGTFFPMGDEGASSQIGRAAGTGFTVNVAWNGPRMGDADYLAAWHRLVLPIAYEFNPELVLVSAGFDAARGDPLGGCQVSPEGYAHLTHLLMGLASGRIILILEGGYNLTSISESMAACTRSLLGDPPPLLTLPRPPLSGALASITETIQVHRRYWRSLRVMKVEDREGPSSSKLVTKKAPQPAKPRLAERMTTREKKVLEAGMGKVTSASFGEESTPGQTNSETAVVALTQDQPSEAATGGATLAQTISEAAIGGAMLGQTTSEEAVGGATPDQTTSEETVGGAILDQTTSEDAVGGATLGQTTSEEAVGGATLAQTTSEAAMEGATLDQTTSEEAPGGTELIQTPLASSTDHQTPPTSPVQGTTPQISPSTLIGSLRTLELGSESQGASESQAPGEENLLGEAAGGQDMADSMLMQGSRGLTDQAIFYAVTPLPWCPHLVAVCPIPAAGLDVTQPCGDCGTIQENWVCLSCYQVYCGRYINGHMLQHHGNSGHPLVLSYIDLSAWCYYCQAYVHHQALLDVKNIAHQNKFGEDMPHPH
The settings on record: cited from earlier work; for IC50: HDAC6, MTS, read-out: reported HDACs inhibitory activities IC50; for Exp. pIC50: MTS inhibitors.

The target in a further test is HDAC3 (Homo sapiens, UniProt O15379). As to conditions: cited from earlier work.
The mark [1] stands for this setting: training set, read-out: HDACs inhibitory activities IC50.
The mark [2] stands for this setting: MTS, read-out: reported HDACs inhibitory activities IC50.
[3] abbreviates: HDAC6, listed with HDAC6-1 complexes.
Where [4] appears, read: HDAC6, listed with HDAC6-2 complexes.

The values below come from patent US20160378912A1, “STRUCTURE-BASED MODELING AND TARGET-SELECTIVITY PREDICTION” (EPIGENETX, LLC, priority 2013, published 2016).

Where two headings read alike, the source gives them in different places.

HDAC2, sequence (Q92769 whole entry): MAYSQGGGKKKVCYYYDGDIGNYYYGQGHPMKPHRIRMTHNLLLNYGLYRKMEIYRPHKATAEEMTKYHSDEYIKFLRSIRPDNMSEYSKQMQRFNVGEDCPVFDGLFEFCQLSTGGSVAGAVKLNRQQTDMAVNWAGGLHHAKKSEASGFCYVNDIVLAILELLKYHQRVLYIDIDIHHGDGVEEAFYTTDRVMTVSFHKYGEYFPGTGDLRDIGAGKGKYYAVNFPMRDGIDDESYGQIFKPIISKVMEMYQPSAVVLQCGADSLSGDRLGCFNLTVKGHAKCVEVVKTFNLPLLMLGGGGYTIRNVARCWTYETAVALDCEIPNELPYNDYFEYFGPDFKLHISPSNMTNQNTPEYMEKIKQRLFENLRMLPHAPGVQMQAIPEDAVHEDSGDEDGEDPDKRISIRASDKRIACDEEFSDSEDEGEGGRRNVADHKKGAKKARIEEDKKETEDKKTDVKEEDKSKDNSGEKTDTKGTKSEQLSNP
HDAC4, sequence (P56524 whole entry): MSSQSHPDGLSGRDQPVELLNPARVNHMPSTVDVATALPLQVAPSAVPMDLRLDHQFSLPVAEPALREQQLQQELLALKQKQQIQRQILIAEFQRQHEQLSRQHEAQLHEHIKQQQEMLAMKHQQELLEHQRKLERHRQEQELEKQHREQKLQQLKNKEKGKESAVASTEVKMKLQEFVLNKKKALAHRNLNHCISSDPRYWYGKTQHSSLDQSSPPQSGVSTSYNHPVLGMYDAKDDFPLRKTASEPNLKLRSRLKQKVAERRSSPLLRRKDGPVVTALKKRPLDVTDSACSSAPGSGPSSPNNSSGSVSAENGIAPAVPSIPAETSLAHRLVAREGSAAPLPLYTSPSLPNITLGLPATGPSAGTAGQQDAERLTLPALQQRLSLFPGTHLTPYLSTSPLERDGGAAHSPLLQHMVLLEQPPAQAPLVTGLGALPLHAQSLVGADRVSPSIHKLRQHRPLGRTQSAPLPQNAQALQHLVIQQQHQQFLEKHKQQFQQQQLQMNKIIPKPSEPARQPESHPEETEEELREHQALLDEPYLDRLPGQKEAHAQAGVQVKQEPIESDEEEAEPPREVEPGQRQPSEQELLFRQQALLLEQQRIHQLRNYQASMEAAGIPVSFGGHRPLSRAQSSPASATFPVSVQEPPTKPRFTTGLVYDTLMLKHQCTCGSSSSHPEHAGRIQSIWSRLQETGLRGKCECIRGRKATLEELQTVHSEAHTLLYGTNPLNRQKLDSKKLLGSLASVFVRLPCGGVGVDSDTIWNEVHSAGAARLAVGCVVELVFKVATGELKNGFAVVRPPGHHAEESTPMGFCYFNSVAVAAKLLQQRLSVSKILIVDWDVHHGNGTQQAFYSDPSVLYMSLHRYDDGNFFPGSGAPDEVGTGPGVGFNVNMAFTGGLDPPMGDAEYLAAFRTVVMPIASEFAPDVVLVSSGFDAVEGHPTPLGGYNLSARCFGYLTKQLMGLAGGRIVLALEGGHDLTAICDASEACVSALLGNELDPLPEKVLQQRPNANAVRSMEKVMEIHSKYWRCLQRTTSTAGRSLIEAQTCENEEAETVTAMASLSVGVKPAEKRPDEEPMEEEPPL
HDAC1, sequence (Q13547 whole entry): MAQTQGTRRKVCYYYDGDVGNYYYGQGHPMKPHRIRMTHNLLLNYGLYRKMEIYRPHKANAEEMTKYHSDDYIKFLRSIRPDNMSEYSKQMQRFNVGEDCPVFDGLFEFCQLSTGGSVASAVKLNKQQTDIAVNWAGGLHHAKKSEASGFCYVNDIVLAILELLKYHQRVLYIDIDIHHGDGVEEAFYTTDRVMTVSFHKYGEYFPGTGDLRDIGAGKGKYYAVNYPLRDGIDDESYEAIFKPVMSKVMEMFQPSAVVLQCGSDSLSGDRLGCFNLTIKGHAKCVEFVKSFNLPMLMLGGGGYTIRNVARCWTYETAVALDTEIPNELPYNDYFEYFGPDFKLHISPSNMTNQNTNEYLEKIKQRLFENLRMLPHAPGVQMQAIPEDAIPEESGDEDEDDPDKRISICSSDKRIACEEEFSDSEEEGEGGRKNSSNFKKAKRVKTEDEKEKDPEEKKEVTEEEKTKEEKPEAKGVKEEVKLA
HDAC3, sequence (O15379 whole entry): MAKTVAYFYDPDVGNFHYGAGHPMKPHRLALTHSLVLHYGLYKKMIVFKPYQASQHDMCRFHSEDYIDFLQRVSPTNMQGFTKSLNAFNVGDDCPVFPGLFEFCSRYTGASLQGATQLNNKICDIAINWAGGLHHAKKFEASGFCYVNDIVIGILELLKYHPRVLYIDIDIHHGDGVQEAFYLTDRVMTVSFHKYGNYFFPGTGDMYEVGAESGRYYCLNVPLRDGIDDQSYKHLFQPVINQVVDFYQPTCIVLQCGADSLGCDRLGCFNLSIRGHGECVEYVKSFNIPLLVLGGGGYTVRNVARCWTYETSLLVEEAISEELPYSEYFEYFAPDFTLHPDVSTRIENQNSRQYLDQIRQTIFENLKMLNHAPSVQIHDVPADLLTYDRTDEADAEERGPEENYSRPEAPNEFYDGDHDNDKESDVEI
HDAC3, sequence (Q9Y618 395-489 partner limits assumed): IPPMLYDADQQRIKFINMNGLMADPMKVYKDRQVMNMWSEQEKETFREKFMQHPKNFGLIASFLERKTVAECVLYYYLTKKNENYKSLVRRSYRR

As for `O=C(CCC1CCCC1)NO` [3YP, 3-cyclopentyl-n-hydroxypropanamide], at HDAH, the “Experimental pIC50” value is recorded as 6.54 and the IC50 is 290 nM.
On to `C/C=C/N(C)c1nc([C@H](C)c2c(F)cccc2F)c(C)c(=O)[nH]1` [(R)-MC1501], for which the “Experimental activity (pKi), Exp” value at HIV-RT Y188L is 6.71; at HIV-RT Y181I it was 6.35; on HIV-RT V106A it was 8.52; on HIV-RT K103N, 7.02; on HIV-RT WT, 8.70; at HIV-RT L100I, 7.02.
As to `Cc1c(N)nc(Nc2ccc(C#N)cc2)nc1[C@H](C)c1c(F)cccc1F` [(R)-MC2082], the “Experimental activity (pKi), Exp” value was 8.10 at HIV-RT Y188L; 6.12 on HIV-RT Y181I; 9.52 at HIV-RT V106A; 8.52 on HIV-RT K103N; 6.81 at HIV-RT WT; 8.10 at HIV-RT L100I.
Turning to `Cn1cc(C(=O)Cc2ccccc2)cc1/C=C/C(=O)NO` [APHA8, (2E)-N-hydroxy-3-[1-methyl-4-(phenylacetyl)-1H-pyrrol-2-yl]prop-2-enamide], the “Bioactivity range (ΔpIC50) DpIC50” value with HDAC isoforms turned out to be 1.87. Also, the pIC50 on HDAC4 (training set composition) and on HDAC7 (training set composition) was 5.51 in each case. Moreover, the IC50 on HDAC4 (setting [1]) and at HDAC7 (setting [1]) was 3100 nM throughout.
For `O=C(CCCCCCC(=O)C(F)(F)F)Nc1ccccc1` [CF3, 9,9,9-trifluoro-8-oxo-n-phenylnonanamide], at HDAH, the “Experimental pIC50” value is 4.95 and the IC50 was 11200 nM.
For `CC(C)(C)OC(=O)Nc1ccccc1-c1ccc(NC(=O)CCCCCCC(=O)NO)cc1` [CMC-7f], the “Exp. pIC50” value on HDAC10 is reported as 7.08; at HDAC1 (MTS inhibitors), 7.24; at HDAC8 (MTS inhibitors), 5.76; at HDAC2, 7.13; on HDAC6 (setting [3]) it was 7.96; on HDAC6 (setting [4]) it was 7.96. For the same molecule, the “Exp. pIC50” value at HDAC3 (MTS inhibitors) is reported as 7.75. Moreover, the IC50 is 83 nM on HDAC10; 57 nM at HDAC1 (setting [2]); 1720 nM at HDAC8 (setting [2]); 74 nM at HDAC2 (setting [2]); 11 nM on HDAC6; 18 nM on HDAC3 (setting [2]).
`CC(C)(C)OC(=O)Nc1cccc(-c2csc(NC(=O)CCCCCCC(=O)NO)n2)c1` [CMC-25b]: the “Exp. pIC50” value at HDAC10 is reported as 8.70; at HDAC2 it was 7.13; at HDAC6 (setting [3]), 9.70; at HDAC6 (setting [4]), 9.70. Besides, the IC50 at HDAC10 was 2 nM; at HDAC6, 0.2 nM.

The term IC50 denotes the concentration that gives 50% inhibition. A word on the pIC50: it is −log10 of the IC50, conventionally taken in molar units.
